In ChEMBL document CHEMBL1201862, “PubChem BioAssay data set” (2004):
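All cell lines were grown in 96-well plates and treated with compound for 48 hours. Abbreviation: GI50, concentration required for 50% inhibition of growth.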 Calls of active or inactive are those of the source. Cut-off read from the data, not from the text of the source: active = GI50 up to about 1.1 µM and inactive = higher.

Columns and labels:
Experiment in all cases: inhibition of tumour cell growth, NCI panel, 48 h
[1] = tested on: BT-549
[2] = tested on: DU-145
[3] = tested on: HCT-116
[4] = tested on: HCT-15
[5] = tested on: HT-29
[6] = tested on: K562
[7] = tested on: KM12
[8] = tested on: MDA-MB-231
[9] = tested on: NCI-H460
[10] = tested on: NCI-H522
[11] = tested on: OVCAR-4
[12] = tested on: RXF 393
[13] = tested on: SF-268
[14] = tested on: SF-539
[15] = tested on: SN12C
[16] = tested on: UO-31
[17] = tested on: A498
[18] = tested on: Malme-3M
[19] = tested on: NCI-H226
[20] = tested on: HL-60

| SMILES | GI50 [1] | GI50 [2] | GI50 [3] | GI50 [4] [µM] | GI50 [5] | GI50 [6] | GI50 [7] | GI50 [8] | GI50 [9] | GI50 [10] | GI50 [11] | GI50 [12] | GI50 [13] | GI50 [14] | GI50 [15] | GI50 [16] | GI50 [17] | GI50 [18] | GI50 [19] | GI50 [20] |
| --- | --- | --- | --- | --- | --- | --- | --- | --- | --- | --- | --- | --- | --- | --- | --- | --- | --- | --- | --- | --- |
| Cn1c(=O)n2n(c1=O)C([S+]([O-])c1ccccc1)C2 (configuration not stated) | > 100 µM (inactive) | > 100 µM (inactive) | > 100 µM (inactive) | > 100 | > 100 µM (inactive) | > 100 µM (inactive) | 42.8 µM (inactive) | > 100 µM (inactive) | > 100 µM (inactive) | 30.8 µM (inactive) | > 100 µM (inactive) | > 100 µM (inactive) | > 100 µM (inactive) | > 100 µM (inactive) | > 100 µM (inactive) | > 100 µM (inactive) | – | – | – | – |
| CCOC(=O)c1c(N2CCCC2)[nH]c(=O)c(C(c2ccc(N(C)C)cc2)c2c(O)c(C(=O)OCC)c(N3CCCC3)[nH]c2=O)c1O | 30.4 µM (inactive) | > 100 µM (inactive) | > 100 µM (inactive) | > 100 | > 100 µM (inactive) | > 100 µM (inactive) | > 100 µM (inactive) | 82.2 µM (inactive) | > 100 µM (inactive) | > 100 µM (inactive) | > 100 µM (inactive) | > 100 µM (inactive) | > 100 µM (inactive) | > 100 µM (inactive) | > 100 µM (inactive) | > 100 µM (inactive) | > 100 µM (inactive) | > 100 µM (inactive) | > 100 µM (inactive) | – |
| Cc1ccc2c(O)cc(-c3ccc4ccccc4c3)nc2n1 | 27.4 µM (inactive) | 15.5 µM (inactive) | – | 3.54 | 3.75 µM (inactive) | 3.41 µM (inactive) | 3.21 µM (inactive) | 14.3 µM (inactive) | – | 3.32 µM (inactive) | 6.25 µM (inactive) | – | 6.9 µM (inactive) | 4.74 µM (inactive) | 5.3 µM (inactive) | 8 µM (inactive) | 3.4 µM (inactive) | 4.46 µM (inactive) | 5.81 µM (inactive) | 1.82 µM (inactive) |
| C=C(C)[C@@]1(O)O[C@H]2C[C@@]3(C)OC(=CC3=O)/C(C)=C\[C@@H]3OC(=O)[C@@]1(C)[C@H]32 | 8.89 µM (inactive) | 37.7 µM (inactive) | 7.64 µM (inactive) | 9.25 | 19.5 µM (inactive) | 4.67 µM (inactive) | 15.1 µM (inactive) | 17 µM (inactive) | 22.8 µM (inactive) | 3.61 µM (inactive) | 20.7 µM (inactive) | 11.1 µM (inactive) | 23 µM (inactive) | 23.9 µM (inactive) | 15 µM (inactive) | 30.1 µM (inactive) | – | 18.5 µM (inactive) | 39.3 µM (inactive) | 14.2 µM (inactive) |
| COc1ccc(CCCCNCc2cccc(CNCCCCc3ccc(OC)cc3)c2)cc1 | 1.81 µM (inactive) | 1.88 µM (inactive) | 1.94 µM (inactive) | 1.77 | 1.82 µM (inactive) | 1.36 µM (inactive) | 1.77 µM (inactive) | 1.87 µM (inactive) | 2.39 µM (inactive) | 1.88 µM (inactive) | 2.03 µM (inactive) | 1.64 µM (inactive) | 1.76 µM (inactive) | 1.96 µM (inactive) | 2.04 µM (inactive) | 1.35 µM (inactive) | – | 2 µM (inactive) | 0.385 µM (active) | 1.77 µM (inactive) |
| O=C1CSC(c2ccc(Cl)cc2)N1c1ccc(-c2ccc(-n3c(-c4ccccc4)nc4ccccc4c3=O)cc2)cc1 (configuration not stated) | 19 µM (inactive) | 49.1 µM (inactive) | 24.8 µM (inactive) | 33.2 | 15.2 µM (inactive) | 37.2 µM (inactive) | 26.2 µM (inactive) | 38.8 µM (inactive) | 67.1 µM (inactive) | 25.2 µM (inactive) | 19.3 µM (inactive) | – | 21.6 µM (inactive) | 24.1 µM (inactive) | 68.1 µM (inactive) | 10.6 µM (inactive) | 51.2 µM (inactive) | 28.4 µM (inactive) | – | > 100 µM (inactive) |
| NCCSCCc1ccccc1 | > 100 µM (inactive) | > 100 µM (inactive) | > 100 µM (inactive) | > 100 | > 100 µM (inactive) | > 100 µM (inactive) | > 100 µM (inactive) | > 100 µM (inactive) | > 100 µM (inactive) | 58.6 µM (inactive) | > 100 µM (inactive) | > 100 µM (inactive) | > 100 µM (inactive) | > 100 µM (inactive) | > 100 µM (inactive) | > 100 µM (inactive) | > 100 µM (inactive) | > 100 µM (inactive) | > 100 µM (inactive) | – |
| CCOC(=O)NC(=S)NN(C)C1=NCC(C)(C)S1 | > 100 µM (inactive) | > 100 µM (inactive) | > 100 µM (inactive) | > 100 | – | > 100 µM (inactive) | > 100 µM (inactive) | > 100 µM (inactive) | > 100 µM (inactive) | > 100 µM (inactive) | – | > 100 µM (inactive) | – | > 100 µM (inactive) | > 100 µM (inactive) | > 100 µM (inactive) | > 100 µM (inactive) | – | – | > 100 µM (inactive) |
| O=C1NC(N2CCCC(CO)C2)=N/C1=C\c1cccs1 (configuration not stated) | > 100 µM (inactive) | > 100 µM (inactive) | > 100 µM (inactive) | > 100 | > 100 µM (inactive) | > 100 µM (inactive) | > 100 µM (inactive) | > 100 µM (inactive) | – | > 100 µM (inactive) | > 100 µM (inactive) | > 100 µM (inactive) | > 100 µM (inactive) | > 100 µM (inactive) | > 100 µM (inactive) | > 100 µM (inactive) | – | > 100 µM (inactive) | > 100 µM (inactive) | > 100 µM (inactive) |
| COC(=O)C1=C(C(=O)OC)C(OO)(c2ccccc2)OC1=O (configuration not stated) | > 100 µM (inactive) | > 100 µM (inactive) | 61.7 µM (inactive) | 40.6 | 35.9 µM (inactive) | 52.7 µM (inactive) | > 100 µM (inactive) | 58.2 µM (inactive) | 48.6 µM (inactive) | 60.7 µM (inactive) | > 100 µM (inactive) | > 100 µM (inactive) | – | 33.3 µM (inactive) | 86.3 µM (inactive) | > 100 µM (inactive) | – | > 100 µM (inactive) | > 100 µM (inactive) | > 100 µM (inactive) |
| O=c1[nH]cnc2c(C3OC(CO)C(O)C3O)c[nH]c12 (configuration not stated) | > 100 µM (inactive) | > 100 µM (inactive) | > 100 µM (inactive) | – | > 100 µM (inactive) | > 100 µM (inactive) | > 100 µM (inactive) | > 100 µM (inactive) | > 100 µM (inactive) | > 100 µM (inactive) | > 100 µM (inactive) | > 100 µM (inactive) | > 100 µM (inactive) | > 100 µM (inactive) | > 100 µM (inactive) | > 100 µM (inactive) | – | > 100 µM (inactive) | > 100 µM (inactive) | > 100 µM (inactive) |
| CCOP(=O)(OCC)/C(C#N)=C/c1coc2cc(C)cc(C)c2c1=O | > 100 µM (inactive) | > 100 µM (inactive) | > 100 µM (inactive) | – | > 100 µM (inactive) | > 100 µM (inactive) | > 100 µM (inactive) | > 100 µM (inactive) | > 100 µM (inactive) | > 100 µM (inactive) | > 100 µM (inactive) | – | > 100 µM (inactive) | – | > 100 µM (inactive) | > 100 µM (inactive) | > 100 µM (inactive) | > 100 µM (inactive) | > 100 µM (inactive) | > 100 µM (inactive) |
| NC(=O)c1cn(C2OC(CO)C(O)C2O)c2nc[n+]([O-])c(N)c12 (configuration not stated) | 0.592 µM (active) | 0.104 µM (active) | 0.0206 µM (active) | 0.0735 | 0.143 µM (active) | 0.34 µM (active) | 0.153 µM (active) | 0.342 µM (active) | 0.446 µM (active) | 1.36 µM (inactive) | 0.201 µM (active) | 0.564 µM (active) | 0.23 µM (active) | 0.321 µM (active) | 0.0912 µM (active) | 0.382 µM (active) | – | 0.0398 µM (active) | 0.211 µM (active) | – |
| CC(C)(C)OC(=O)NCCCCC(NC(=O)OCc1ccccc1)C(N)=O (configuration not stated) | > 100 µM (inactive) | > 100 µM (inactive) | > 100 µM (inactive) | > 100 | > 100 µM (inactive) | > 100 µM (inactive) | > 100 µM (inactive) | > 100 µM (inactive) | > 100 µM (inactive) | > 100 µM (inactive) | > 100 µM (inactive) | > 100 µM (inactive) | > 100 µM (inactive) | > 100 µM (inactive) | > 100 µM (inactive) | > 100 µM (inactive) | – | > 100 µM (inactive) | > 100 µM (inactive) | > 100 µM (inactive) |
| CC(=O)N1C(Nc2ccccc2)CCN1c1ccccc1 (configuration not stated) | > 10 µM (inactive) | > 10 µM (inactive) | > 10 µM (inactive) | 3.66 | 5.77 µM (inactive) | 4.04 µM (inactive) | – | > 10 µM (inactive) | > 10 µM (inactive) | > 10 µM (inactive) | > 10 µM (inactive) | > 10 µM (inactive) | 3.54 µM (inactive) | 5.19 µM (inactive) | > 10 µM (inactive) | 4.45 µM (inactive) | – | 5.38 µM (inactive) | > 10 µM (inactive) | 5.08 µM (inactive) |
| CCc1cccc2c3c([nH]c12)-c1ccccc1NC(=O)C3 | > 100 µM (inactive) | > 100 µM (inactive) | – | 84.1 | > 100 µM (inactive) | 19.4 µM (inactive) | 7.06 µM (inactive) | 5.66 µM (inactive) | > 100 µM (inactive) | – | – | – | 48.2 µM (inactive) | – | 95.5 µM (inactive) | > 100 µM (inactive) | 19.5 µM (inactive) | – | 14.1 µM (inactive) | 92.3 µM (inactive) |
